These results are taken from patent US8399429B2, “Uracyl cyclopropyl nucleotides” (Janssen Products, LP, priority 2008, dated 2013).

Structures are written as SMILES.

Series [1] relates to wild type human immunodeficiency virus (HIV) strain IIIB. In words: HIV assay in MT4 LTR-EGFP cells. The settings on record: three days after infection. The format is cell-based, HIV-1. The method, then: (§1) Compounds of the invention were tested for their potency against wild type human immunodeficiency virus (HIV). Antiviral activity was evaluated using a cellular assay performed according to the following procedure. The human T-cell line MT4 was engineered with Green Fluorescent Protein (GFP) and a HIV-specific promoter, HIV-1 long terminal repeat (LTR). This cell line, designated MT4 LTR-EGFP, can be used for the in vitro evaluation of anti-HIV activity of investigational compounds. In HIV-1 infected cells, the Tat protein is produced, which upregulates the LTR promotor and eventually leads to stimulation of the GFP reporter production, allowing to measure ongoing HIV-infection fluorometrically. Effective concentration values such as 50% effective concentration (EC50) can be determined and are usually expressed in μM. An EC50 value is defined as the concentration of test compound that reduces the fluorescence of HIV-infected cells by 50%. Monitoring of HIV-1 infection was done using a scanning microscope. Image analysis allows very sensitive detection of viral infection. Measurements were done before cell necrosis, which usually takes place about five days after infection, in particular measurements were performed three days after infection. The column IIIB in the table list the EC50 values against the wild type strain IIIB.

The next series relates to Huh7-CMV-Luc cells. The series can be described thus: Cellular toxicity in Huh7-CMV-Luc replicon assay. The settings on record: three days incubation, Luc activity, read-out: CC50 (μM) (Huh-7). It is filed as cell-based. Here is the method:
Cellular toxicity was determined in the Huh7-CMV-Luc replicon assay. Replicon cells (2500 cells/well), stably transformed with a luciferase reporter gene under control of the cytomegalovirus (CMV) constitutive promotor, were cultured in the presence or absence of test compound concentrations. After three days of incubation at 37° C. in a humidified 5% CO2 atmosphere, cell proliferation was quantified by measuring the Luc activity, and expressed as CC50 values (cytotoxicity, 50% inhibitory concentration of cell growth). Tests were performed in 384-well plates.

The subject of another series is MT-4 cells. The series can be described thus: Cellular toxicity in the HIV cell-line (MT-4). The format is cell-based, human. The method, then: as §1
Also the HIV activity is given (EC50 HIV (μM)) and the cellular toxicity in the HIV cell-line (CC50 (μM) (MT-4)).

Series [2] has as its system HCV replicon (Huh-7 luc/neo, NS3-NS5B of HCV type 1b). In words: HCV replicon assay (Huh-Luc, luciferase readout). The settings on record: Huh-Luc cells, HCV type 1b replicon, three days incubation, luciferase activity. It is filed as cell-based. From the text:
The compounds of formula I were examined for activity in the inhibition of HCV RNA replication in a cellular assay aimed at identifying compounds that inhibit a HCV functional cellular replicating cell line, also known as HCV replicons. The cellular assay was based on a bicistronic expression construct, as described by Lohmann et al. (1999), Science vol. 285 pp. 110-113 with modifications described by Krieger et al. (2001), Journal of Virology 75: 4614-4624, in a multi-target screening strategy.
The assay utilized the stably transfected cell line Huh-7 luc/neo (hereafter referred to as Huh-Luc). This cell line harbors an RNA encoding a bicistronic expression construct comprising the wild type NS3-NS5B regions of HCV type 1b translated from an Internal Ribosome Entry Site (IRES) from encephalomyocarditis virus (EMCV), preceded by a reporter portion (FfL-luciferase), and a selectable marker portion (neoR, neomycine phosphotransferase). The construct is bordered by 5′ and 3′ NTRs (non-translated regions) from HCV type 1b. Continued culture of the replicon cells in the presence of G418 (neo^R) is dependent on the replication of the HCV RNA. The stably transfected replicon cells that express HCV RNA, which replicates autonomously and to high levels, encoding inter alia luciferase, were used for screening the antiviral compounds.
The replicon cells were plated in 384 well plates in the presence of the test and control compounds which were added in various concentrations. Following an incubation of three days, HCV replication was measured by assaying luciferase activity (using standard luciferase assay substrates and reagents and a Perkin Elmer ViewLux™ ultraHTS microplate imager). Replicon cells in the control cultures have high luciferase expression in the absence of any inhibitor. The inhibitory activity of the compound on luciferase activity was monitored on the Huh-Luc cells, enabling a dose-response curve for each test compound. EC50 values were then calculated, which value represents the amount of the compound required to decrease the level of detected luciferase activity by 50%, or more specifically, the ability of the genetically linked HCV replicon RNA to replicate.
Background: In antiviral work, replicon cells carry a viral genome segment that copies itself.

Consider `C[C@H](NP(=O)(OC[C@H]1O[C@@H](n2ccc(=O)[nH]c2=O)C2(CC2)[C@@H]1O)Oc1ccc(Cl)cc1)C(=O)OCc1ccccc1` (single isomer, unassigned) [Compound 7b], for which the figures for the EC50 in series [1] and in series [2] were more than 98 µM and 3.4 µM, respectively. Moreover, the CC50 (in general, the concentration at which the toxic effect on the cells reaches its halfway point) with Huh7-CMV-Luc cells is more than 98 µM; in the series on MT-4 cells, more than 90 µM.
